Results: PubChem BioAssay AID2060883 (Molecular Pharmacology Branch, DTP, NCI, 2025)

System: 843782-103-R-J1-PDC complex spheroid viability
Test: Anticancer human tumor 843782-103-R-J1-PDC patient-derived lung adenocarcinoma cell line growth inhibition [RAS]
Conditions: for IC50: curve of first compound; for viability, T/C: stronger effect = lower value
Source text: RAS pathway inhibitors in Combinations in Complex Spheroids
A high-throughput screen of multi-cell type tumor spheroids was designed to identify active combinations of RAS pathway inhibitors and targeted small molecules. Complex spheroids include a stromal component modeled by human endothelial cells (HUVEC) and fibroblasts modeled by human mesenchymal stem cells (MSCs). The concentration ranges selected for each drug and investigational agent were based upon clinically achievable concentrations if the clinical Cmax of the agent was known.
Compounds. The drugs and investigational agents: abemaciclib (NSC768073), cobimetinib (NSC768068), divarasib (GDC6063, NSC841802), docetaxel (NSC628503), GDC-1971 (RLY-1971, NSC841576), gemcitabine (NSC613327), inavolisib (NSC800729), ipatasertib (NSC767898), KB-0742 (NSC834161), MRTX-1133 (NSC836407), osimertinib (NSC779217), RMC-4630 (NSC839698), RMC-6236 (NSC851965), RMC-6291 (NSC852671), Ro-3306 (NSC812927), sapanisertib (NSC764658), SN-38 (NSC673596), staurosporine (NSC755774), SY5609 (NSC837396), and tovorafenib (DAY101, NSC766906), were obtained from the National Cancer Institute (NCI) Developmental Therapeutics Program Chemical Repository. The FDA-approved anticancer drug set is available from the NCI Developmental Therapeutics Program. […] The stock solutions were prepared in dimethyl sulfoxide (DMSO, Sigma-Aldrich, St. Louis, MO, cat. D2650) at 800-fold the tested concentration and stored at -70 degrees C prior to their use. All drugs and investigational agents were tested over a range starting from a high concentration at or near the clinical Cmax and decreasing in half-log increments. If the clinical Cmax for an agent had not been determined, the highest concentration tested was 10 microM.
Cell Culture. All cells were maintained in an incubator at 37 degrees C and 5% CO2 with 95% humidity. The PDC lines were cultured according to standard operating procedures established by the NCI PDMR. All PDCs were thawed and cultured in Matrigel-coated flasks prepared with a working solution of 1X Ham's F-12 nutrient mix, without supplementation (Invitrogen, Waltham, MA, cat. 11765054), 100 U/mL penicillin-streptomycin (Invitrogen, cat. 15140122), and 2.5% Matrigel (Corning Inc., Corning, NY, cat. 354248) for the first three passages. The 362531-283-R-J2-PDC and 782815-120-R-J1-PDC lines were cultured in 6C/Colon 1B media, which includes advanced DMEM/F-12 (Thermo Fisher Scientific, cat. 12634028), 10 mM HEPES (Thermo Fisher Scientific, cat. 15630080), 1X GlutaMAX supplement (Thermo Fisher Scientific, cat. 35050061), 0.1 mg/mL primocin (InvivoGen, San Diego, CA, cat. ant-pm-2), 10% defined fetal bovine serum, heat inactivated (HyClone Laboratories Inc., Logan, UT, cat. SH30070.03HI), 50% L-WRN conditioned media (ATCC, cat. CRL-3276), 1.25 mM N-Acetyl-L-cysteine (Sigma-Aldrich, cat. A9165), 10 mM nicotinamide (Sigma-Aldrich, cat. N0636), 1X B-27 supplement (Thermo Fisher Scientific, cat. 17504044), 1X N-2 supplement (Thermo Fisher Scientific, cat. 17502048), 50 ng/mL human EGF (Thermo Fisher Scientific, cat. PHG0311), and 10 microM Y-27632 dihydrochloride (Tocris Bioscience, cat. 1254). The K12877-001-R-J1-PDC line was cultured in 6I media, which includes all 6C/Colon 1B media plus 10 ng/mL human FGF-10 (PeproTech, cat. 100-26), 1 ng/mL human FGF-2 (PeproTech, cat. 100-18B), 1 µM prostaglandin E2 (Tocris Bioscience, cat. 2296), […] hydrocortisone (Sigma-Aldrich, cat. H4001), and […] bovine insulin (Sigma-Aldrich, cat. I6634). The K86415-001-R-J1-PDC line was cultured in 6D media, which includes all 6C/Colon 1B media components minus the L-WRN conditioned media. The 485176-168-R4-J1-PDC was cultured in PANC media, which includes all 6C/Colon 1B media plus 100 ng/mL human FGF-10 (PeproTech, cat. 100-26), 500 nM SB-431542 (Selleckchem, cat. S1067), and 10 nM gastrin (Tocris Bioscience, cat. 3006). […]

[1] = second compound 0.00316 µM, first compound 0.0316 µM
[2] = second compound 0.00316 µM, first compound 0.1 µM
[3] = second compound 0.00316 µM, first compound 0.316 µM
[4] = second compound 0.00316 µM, first compound 1 µM
[5] = second compound 0.00316 µM, first compound 3.16 µM
[6] = second compound 0.00316 µM, first compound 10 µM
[7] = second compound 0.01 µM, first compound 0.0316 µM
[8] = second compound 0.01 µM, first compound 0.1 µM
[9] = second compound 0.01 µM, first compound 0.316 µM
[10] = second compound 0.01 µM, first compound 1 µM
[11] = second compound 0.01 µM, first compound 3.16 µM
[12] = second compound 0.01 µM, first compound 10 µM
[13] = second compound 0.0316 µM, first compound 0.0316 µM
[14] = second compound 0.0316 µM, first compound 0.1 µM
[15] = second compound 0.0316 µM, first compound 0.316 µM
[16] = second compound 0.0316 µM, first compound 1 µM
[17] = second compound 0.0316 µM, first compound 3.16 µM
[18] = second compound 0.0316 µM, first compound 10 µM
[19] = second compound 0.1 µM, first compound 0.0316 µM
[20] = second compound 0.1 µM, first compound 0.1 µM
[21] = second compound 0.1 µM, first compound 0.316 µM
[22] = second compound 0.1 µM, first compound 1 µM
[23] = second compound 0.1 µM, first compound 3.16 µM
[24] = second compound 0.1 µM, first compound 10 µM
[25] = second compound 0.316 µM, first compound 0.0316 µM
[26] = second compound 0.316 µM, first compound 0.1 µM
[27] = second compound 0.316 µM, first compound 0.316 µM
[28] = second compound 0.316 µM, first compound 1 µM
[29] = second compound 0.316 µM, first compound 3.16 µM
[30] = second compound 0.316 µM, first compound 10 µM
[31] = second compound 1 µM, first compound 0.0316 µM
[32] = second compound 1 µM, first compound 0.1 µM
[33] = second compound 1 µM, first compound 0.316 µM
[34] = second compound 1 µM, first compound 1 µM
[35] = second compound 1 µM, first compound 3.16 µM
[36] = second compound 1 µM, first compound 10 µM
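Note: viability read after seven days of compound exposure.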

SMILES: CC(=O)OC12COC1CC(O)C1(C)C(=O)C(O)C3=C(C)C(OC(=O)C(O)C(NC(=O)OC(C)(C)C)c4ccccc4)CC(O)(C(OC(=O)c4ccccc4)C21)C3(C)C (centres undefined) + C=CC(=O)N1CCN(c2nc(OCC3CCCN3C)nc3c(F)c(-c4nc(N)cc(C)c4C(F)(F)F)c(Cl)cc23)C(C)C1
- IC50 (second compound 0.00316 µM): < 31.6 nM
- IC50 (second compound 0.01 µM): < 31.6 nM
- IC50 (second compound 0.0316 µM): < 31.6 nM
- IC50 (second compound 0.1 µM): < 31.6 nM
- IC50 (second compound 0.316 µM): < 31.6 nM
- IC50 (second compound 1 µM): < 31.6 nM
- viability, T/C [1]: 3.83%
- viability, T/C [2]: 3.97%
- viability, T/C [3]: 4.72%
- viability, T/C [4]: 5.04%
- viability, T/C [5]: 6.7%
- viability, T/C [6]: 7.46%
- viability, T/C [7]: 3.55%
- viability, T/C [8]: 5.26%
- viability, T/C [9]: 5.77%
- viability, T/C [10]: 5.45%
- viability, T/C [11]: 4.97%
- viability, T/C [12]: 8.21%
- viability, T/C [13]: 4.29%
- viability, T/C [14]: 4.99%
- viability, T/C [15]: 5.82%
- viability, T/C [16]: 4.83%
- viability, T/C [17]: 5.52%
- viability, T/C [18]: 6.14%
- viability, T/C [19]: 4.07%
- viability, T/C [20]: 4.89%
- viability, T/C [21]: 5.53%
- viability, T/C [22]: 6.37%
- viability, T/C [23]: 3.49%
- viability, T/C [24]: 6.77%
- viability, T/C [25]: 3.97%
- viability, T/C [26]: 3.89%
- viability, T/C [27]: 3.73%
- viability, T/C [28]: 5.43%
- viability, T/C [29]: 5.26%
- viability, T/C [30]: 7.59%
- viability, T/C [31]: 4.07%
- viability, T/C [32]: 3.8%
- viability, T/C [33]: 4.24%
- viability, T/C [34]: 3.62%
- viability, T/C [35]: 4.03%
- viability, T/C [36]: 7.53%

SMILES: CC(C)NCC(C(=O)N1CCN(c2ncnc3c2C(C)CC3O)CC1)c1ccc(Cl)cc1 (centres undefined) + C=CC(=O)N1CCN(c2nc(OCC3CCCN3C)nc3c(F)c(-c4nc(N)cc(C)c4C(F)(F)F)c(Cl)cc23)C(C)C1
- IC50 (second compound 0.00316 µM): 726 nM
- IC50 (second compound 0.01 µM): 711 nM
- IC50 (second compound 0.0316 µM): 672 nM
- IC50 (second compound 0.1 µM): 669 nM
- IC50 (second compound 0.316 µM): 641 nM
- IC50 (second compound 1 µM): 869 nM
- viability, T/C [1]: 91.6%
- viability, T/C [2]: 81.3%
- viability, T/C [3]: 70%
- viability, T/C [4]: 42.9%
- viability, T/C [5]: 18.8%
- viability, T/C [6]: 8.64%
- viability, T/C [7]: 88.5%
- viability, T/C [8]: 85.1%
- viability, T/C [9]: 75.1%
- viability, T/C [10]: 38.3%
- viability, T/C [11]: 19.2%
- viability, T/C [12]: 8.6%
- viability, T/C [13]: 89%
- viability, T/C [14]: 81.2%
- viability, T/C [15]: 70.6%
- viability, T/C [16]: 38.8%
- viability, T/C [17]: 17.3%
- viability, T/C [18]: 6.65%
- viability, T/C [19]: 91.5%
- viability, T/C [20]: 77.9%
- viability, T/C [21]: 65.4%
- viability, T/C [22]: 44.7%
- viability, T/C [23]: 17.2%
- viability, T/C [24]: 8.54%
- viability, T/C [25]: 91.5%
- viability, T/C [26]: 79.7%
- viability, T/C [27]: 67.2%
- viability, T/C [28]: 40.1%
- viability, T/C [29]: 18.2%
- viability, T/C [30]: 8.75%
- viability, T/C [31]: 89.2%
- viability, T/C [32]: 74.2%
- viability, T/C [33]: 72.2%
- viability, T/C [34]: 47.9%
- viability, T/C [35]: 20.7%
- viability, T/C [36]: 7.97%
